Experimental data reported in article PMC10178848, “Modulating fast skeletal muscle contraction protects skeletal muscle in animal models of Duchenne muscular dystrophy” (The Journal of Clinical Investigation, 2023).
Where two headings read alike, the source gives them in different places.

Assays:
[1] = system: Neonatal Rat (P1) myofibrils; assay: Myofibril ATPase, neonatal rat; format: biochemical
Method: Myofibrils were prepared from various animals and tissues: rabbit psoas muscle and porcine cardiac muscle were purchased from Pel-Freez Biologicals. Human bicep and soleus muscle were purchased from BioIVT, and neonatal rat muscle was obtained in house. All myofibrils were prepared using published methods ([21]).
A lactate dehydrogenase/pyruvate kinase enzyme-coupled system ([62]) was used to monitor ATP hydrolysis rates in various muscle preparations. Rabbit psoas myofibrils were used for high-throughput screening at pCa 6.25 at 0.25 mg/mL. A multidrop cassette (Thermo Fisher Scientific) dispensed 10 μL of the coupled enzyme system, calcium, and myofibrils to 10 μL ATP, NADH and PEP to initiate the reaction prior to reading on a plate reader (Envision, Perkin Elmer) for 10 minutes per plate at room temperature. Hits were reconfirmed, and secondary assays were used to evaluate selectivity, including bovine cardiac myofibrils (pCa 5.86) and enzyme coupled hits with a hexokinase screen (Sigma-Aldrich).

[2] = system: mouse extensor digitorum longus (EDL) muscle; assay: Ex vivo isometric force, mouse EDL; details: WT mouse EDL, 10 μM
Method: Isometric force was measured ex vivo in mouse EDL and soleus muscle. EDL muscle eccentric injury was based on published protocols ([30]), with degree of lengthening and stimulation modified to yield a uniform drop in mdx isometric and peak force over 10 contractions. After isolation, muscle was mounted via 5-0 suture to a combination servomotor/force transducer (300C-LR, Aurora) between 2 electrodes connected to a stimulator (701C, Aurora) in Ringers solution at 27°C with continuously infused CO2/O2 gas mixture. Experiments were recorded with custom MATLAB software via a National Instruments PCIe-6321 board and 2090A BNC connector. Muscles were preincubated for 60 minutes with DMSO (final 0.1%)/compound before 10 eccentric contractions, 1 minute apart, with 100 milliseconds of isometric stimulation at 100 Hz and active lengthening of 0.1 L0 at a rate of 2 L0/s. After lengthening, muscles were held at 1.1 L0 with stimulation for 100 milliseconds (Supplemental Figure 2A).

[3] = molecular target: T1, ABL1-phosphorylated (Homo sapiens, UniProt P00519); assay: KINOMEscan scanEDGE; format: binding; details: 20 uM
T1 construct: purchased Eurofins DiscoverX (KINOMEscan; SAFETYscan E/IC50 ELECT)

[4] = molecular target: T2, DYRK1B (Homo sapiens, UniProt Q9Y463); assay: KINOMEscan scanEDGE; format: binding; details: 20 uM
T2 construct: purchased Eurofins DiscoverX (KINOMEscan; SAFETYscan E/IC50 ELECT)

[5] = molecular target: T3, PAK2 (Homo sapiens, UniProt Q13177); assay: KINOMEscan scanEDGE; format: binding; details: 20 uM
T3 construct: purchased Eurofins DiscoverX (KINOMEscan; SAFETYscan E/IC50 ELECT)

[6] = molecular target: T4, PAK4 (Homo sapiens, UniProt O96013); assay: KINOMEscan scanEDGE; format: binding; details: 20 uM
T4 construct: purchased Eurofins DiscoverX (KINOMEscan; SAFETYscan E/IC50 ELECT)

[7] = molecular target: T5, PDPK1 (Homo sapiens, UniProt O15530); assay: KINOMEscan scanEDGE; format: binding; details: 20 uM
T5 construct: purchased Eurofins DiscoverX (KINOMEscan; SAFETYscan E/IC50 ELECT)

[8] = molecular target: T6, PLK1 (Homo sapiens, UniProt P53350); assay: KINOMEscan scanEDGE; format: binding; details: 20 uM
T6 construct: purchased Eurofins DiscoverX (KINOMEscan; SAFETYscan E/IC50 ELECT)

[9] = molecular target: T7, RSK2(Kin.Dom.1-N-terminal) (Homo sapiens, UniProt P51812); assay: KINOMEscan scanEDGE; format: binding; details: 20 uM
T7 construct: RSK2(Kin.Dom.1-N-terminal); purchased Eurofins DiscoverX (KINOMEscan; SAFETYscan E/IC50 ELECT)

[10] = molecular target: T8, ADORA2A (Homo sapiens, UniProt P29274); assay: SAFETYscan Calcium Flux; format: cell-based; parameters: dose or concentration left out as unconfirmed
T8 construct: purchased Eurofins DiscoverX (KINOMEscan; SAFETYscan E/IC50 ELECT)
Method: (§1) The specificity of EDG-5506 for fast skeletal myosin over other, unrelated proteins was confirmed using two off-target binding and activity screens. […] A second off-target panel (SAFETYscan E/IC50 ELECT, Eurofins DiscoverX) tested in vitro enzyme activity against 78 proteins, including GPCR, ion channel, kinases, nuclear hormone receptors, and transporters. In all assays, the IC50 of EDG-5506 was more than 10 μM (Supplemental Data File 1).

[11] = molecular target: T9, ADRA1A (Homo sapiens, UniProt P35348); assay: SAFETYscan Calcium Flux; format: cell-based; parameters: dose or concentration left out as unconfirmed
T9 construct: purchased Eurofins DiscoverX (KINOMEscan; SAFETYscan E/IC50 ELECT)
Method: as §1

[12] = molecular target: T10, AVPR1A (Homo sapiens, UniProt P37288); assay: SAFETYscan Calcium Flux; format: cell-based; parameters: dose or concentration left out as unconfirmed
T10 construct: purchased Eurofins DiscoverX (KINOMEscan; SAFETYscan E/IC50 ELECT)
Method: as §1

[13] = molecular target: T11, CCKAR (Homo sapiens, UniProt P32238); assay: SAFETYscan Calcium Flux; format: cell-based; parameters: dose or concentration left out as unconfirmed
T11 construct: purchased Eurofins DiscoverX (KINOMEscan; SAFETYscan E/IC50 ELECT)
Method: as §1

[14] = molecular target: T12, CHRM1 (Homo sapiens, UniProt P11229); assay: SAFETYscan Calcium Flux; format: cell-based; parameters: dose or concentration left out as unconfirmed
T12 construct: purchased Eurofins DiscoverX (KINOMEscan; SAFETYscan E/IC50 ELECT)
Method: as §1

[15] = molecular target: T13, CHRM3 (Homo sapiens, UniProt P20309); assay: SAFETYscan Calcium Flux; format: cell-based; parameters: dose or concentration left out as unconfirmed
T13 construct: purchased Eurofins DiscoverX (KINOMEscan; SAFETYscan E/IC50 ELECT)
Method: as §1

[16] = molecular target: T14, EDNRA (Homo sapiens, UniProt P25101); assay: SAFETYscan Calcium Flux; format: cell-based; parameters: dose or concentration left out as unconfirmed
T14 construct: purchased Eurofins DiscoverX (KINOMEscan; SAFETYscan E/IC50 ELECT)
Method: as §1

[17] = molecular target: T15, HRH1 (Homo sapiens, UniProt P35367); assay: SAFETYscan Calcium Flux; format: cell-based; parameters: dose or concentration left out as unconfirmed
T15 construct: purchased Eurofins DiscoverX (KINOMEscan; SAFETYscan E/IC50 ELECT)
Method: as §1

[18] = molecular target: T16, HTR2A (Homo sapiens, UniProt P28223); assay: SAFETYscan Calcium Flux; format: cell-based; parameters: dose or concentration left out as unconfirmed
T16 construct: purchased Eurofins DiscoverX (KINOMEscan; SAFETYscan E/IC50 ELECT)
Method: as §1

[19] = molecular target: T17, HTR2B (Homo sapiens, UniProt P41595); assay: SAFETYscan Calcium Flux; format: cell-based; parameters: dose or concentration left out as unconfirmed
T17 construct: purchased Eurofins DiscoverX (KINOMEscan; SAFETYscan E/IC50 ELECT)
Method: as §1

[20] = read-out: Max Response (%) (Agonist)
[21] = read-out: Max Response (%) (Antagonist)

T11 sequence (P32238 whole entry): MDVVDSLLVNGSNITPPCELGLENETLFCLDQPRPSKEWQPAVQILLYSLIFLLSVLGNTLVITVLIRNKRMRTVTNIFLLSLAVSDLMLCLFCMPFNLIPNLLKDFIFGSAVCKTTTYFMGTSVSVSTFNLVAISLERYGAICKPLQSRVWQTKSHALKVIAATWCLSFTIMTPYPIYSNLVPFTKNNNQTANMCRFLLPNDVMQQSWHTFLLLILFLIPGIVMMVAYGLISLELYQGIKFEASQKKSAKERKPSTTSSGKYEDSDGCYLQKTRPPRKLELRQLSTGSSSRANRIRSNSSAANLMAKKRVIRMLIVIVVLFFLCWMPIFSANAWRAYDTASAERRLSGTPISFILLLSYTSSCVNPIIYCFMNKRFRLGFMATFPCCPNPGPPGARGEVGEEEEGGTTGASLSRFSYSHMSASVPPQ
T16 sequence (P28223 whole entry): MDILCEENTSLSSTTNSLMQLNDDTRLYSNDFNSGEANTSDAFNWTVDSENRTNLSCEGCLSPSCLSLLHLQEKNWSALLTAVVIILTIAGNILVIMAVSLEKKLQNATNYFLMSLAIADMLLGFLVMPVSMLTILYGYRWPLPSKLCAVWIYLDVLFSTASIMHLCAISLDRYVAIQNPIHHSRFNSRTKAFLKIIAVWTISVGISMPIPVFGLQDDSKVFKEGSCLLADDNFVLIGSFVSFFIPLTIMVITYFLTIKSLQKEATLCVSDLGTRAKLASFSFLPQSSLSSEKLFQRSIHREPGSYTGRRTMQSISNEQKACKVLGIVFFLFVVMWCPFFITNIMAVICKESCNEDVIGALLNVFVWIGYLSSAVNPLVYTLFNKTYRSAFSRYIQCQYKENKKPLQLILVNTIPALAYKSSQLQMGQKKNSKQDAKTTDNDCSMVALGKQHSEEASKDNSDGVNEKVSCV
T10 sequence (P37288 whole entry): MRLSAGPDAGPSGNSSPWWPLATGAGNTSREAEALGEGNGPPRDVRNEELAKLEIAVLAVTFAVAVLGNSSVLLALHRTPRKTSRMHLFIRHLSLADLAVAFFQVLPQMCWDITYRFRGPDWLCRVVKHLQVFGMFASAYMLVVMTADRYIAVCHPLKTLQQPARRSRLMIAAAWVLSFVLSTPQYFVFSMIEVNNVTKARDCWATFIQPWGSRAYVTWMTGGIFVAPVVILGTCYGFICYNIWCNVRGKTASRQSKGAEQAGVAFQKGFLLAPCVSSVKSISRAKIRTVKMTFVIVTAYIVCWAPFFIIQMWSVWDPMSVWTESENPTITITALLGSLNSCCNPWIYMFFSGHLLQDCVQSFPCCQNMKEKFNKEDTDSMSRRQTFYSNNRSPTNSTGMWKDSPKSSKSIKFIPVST
T8 sequence (P29274 whole entry): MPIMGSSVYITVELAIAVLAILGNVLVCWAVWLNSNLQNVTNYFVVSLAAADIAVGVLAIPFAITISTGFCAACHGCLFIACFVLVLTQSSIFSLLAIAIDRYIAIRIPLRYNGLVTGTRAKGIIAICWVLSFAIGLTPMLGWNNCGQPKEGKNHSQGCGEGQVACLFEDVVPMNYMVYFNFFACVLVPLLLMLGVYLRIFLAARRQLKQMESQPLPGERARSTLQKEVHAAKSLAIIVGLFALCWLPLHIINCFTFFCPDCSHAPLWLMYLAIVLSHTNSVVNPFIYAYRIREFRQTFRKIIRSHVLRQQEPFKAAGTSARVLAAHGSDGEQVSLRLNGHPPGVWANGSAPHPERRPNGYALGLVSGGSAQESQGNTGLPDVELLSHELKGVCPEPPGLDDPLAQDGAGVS
T13 sequence (P20309 whole entry): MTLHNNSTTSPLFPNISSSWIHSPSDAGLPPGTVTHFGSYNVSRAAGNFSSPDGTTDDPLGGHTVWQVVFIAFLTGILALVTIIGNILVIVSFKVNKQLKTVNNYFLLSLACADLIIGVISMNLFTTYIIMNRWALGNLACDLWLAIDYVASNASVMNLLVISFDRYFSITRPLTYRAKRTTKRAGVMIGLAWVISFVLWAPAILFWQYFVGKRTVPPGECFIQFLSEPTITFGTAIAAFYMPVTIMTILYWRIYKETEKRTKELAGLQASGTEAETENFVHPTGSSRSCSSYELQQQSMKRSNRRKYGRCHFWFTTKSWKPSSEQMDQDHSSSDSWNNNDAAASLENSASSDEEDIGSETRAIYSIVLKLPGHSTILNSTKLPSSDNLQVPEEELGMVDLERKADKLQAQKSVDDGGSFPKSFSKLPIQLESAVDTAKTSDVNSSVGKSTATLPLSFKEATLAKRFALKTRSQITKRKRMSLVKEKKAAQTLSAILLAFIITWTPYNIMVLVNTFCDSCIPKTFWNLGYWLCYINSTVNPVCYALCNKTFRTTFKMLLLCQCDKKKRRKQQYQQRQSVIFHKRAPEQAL
T15 sequence (P35367 whole entry): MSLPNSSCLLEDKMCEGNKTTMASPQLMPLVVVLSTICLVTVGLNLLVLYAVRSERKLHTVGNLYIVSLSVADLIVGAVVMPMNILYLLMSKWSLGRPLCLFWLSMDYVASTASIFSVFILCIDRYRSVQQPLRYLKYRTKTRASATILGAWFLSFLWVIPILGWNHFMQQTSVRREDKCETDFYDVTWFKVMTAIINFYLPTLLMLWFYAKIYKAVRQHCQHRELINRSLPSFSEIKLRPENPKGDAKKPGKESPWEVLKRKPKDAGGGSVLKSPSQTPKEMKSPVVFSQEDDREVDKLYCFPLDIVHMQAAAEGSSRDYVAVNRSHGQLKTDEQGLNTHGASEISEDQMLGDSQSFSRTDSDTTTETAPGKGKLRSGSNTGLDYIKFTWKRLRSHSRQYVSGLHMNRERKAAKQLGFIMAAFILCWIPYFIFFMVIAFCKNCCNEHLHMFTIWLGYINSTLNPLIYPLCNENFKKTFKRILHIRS
T12 sequence (P11229 whole entry): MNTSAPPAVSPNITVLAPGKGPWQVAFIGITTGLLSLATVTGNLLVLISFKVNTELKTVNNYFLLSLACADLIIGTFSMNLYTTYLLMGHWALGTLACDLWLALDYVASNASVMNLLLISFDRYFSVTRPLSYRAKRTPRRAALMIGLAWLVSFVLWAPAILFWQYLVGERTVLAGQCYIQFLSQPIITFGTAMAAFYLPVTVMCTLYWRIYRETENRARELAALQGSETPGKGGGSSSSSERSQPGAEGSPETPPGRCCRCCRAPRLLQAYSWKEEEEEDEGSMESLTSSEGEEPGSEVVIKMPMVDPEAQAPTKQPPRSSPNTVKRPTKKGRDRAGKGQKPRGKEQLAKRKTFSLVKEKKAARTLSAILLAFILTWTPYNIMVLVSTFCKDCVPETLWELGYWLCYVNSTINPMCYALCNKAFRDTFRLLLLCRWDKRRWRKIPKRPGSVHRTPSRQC
T17 sequence (P41595 whole entry): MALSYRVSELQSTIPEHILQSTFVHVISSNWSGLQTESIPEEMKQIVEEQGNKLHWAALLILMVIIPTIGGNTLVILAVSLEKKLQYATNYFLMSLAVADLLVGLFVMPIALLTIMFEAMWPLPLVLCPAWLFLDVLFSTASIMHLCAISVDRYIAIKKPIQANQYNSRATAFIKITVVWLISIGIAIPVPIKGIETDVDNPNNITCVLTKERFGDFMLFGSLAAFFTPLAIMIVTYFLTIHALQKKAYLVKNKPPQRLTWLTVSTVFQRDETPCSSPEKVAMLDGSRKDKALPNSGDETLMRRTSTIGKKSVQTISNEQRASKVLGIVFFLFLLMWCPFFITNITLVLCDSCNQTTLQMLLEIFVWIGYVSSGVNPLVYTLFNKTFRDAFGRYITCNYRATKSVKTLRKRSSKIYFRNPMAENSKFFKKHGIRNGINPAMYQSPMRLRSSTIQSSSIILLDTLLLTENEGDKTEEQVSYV
T9 sequence (P35348 whole entry): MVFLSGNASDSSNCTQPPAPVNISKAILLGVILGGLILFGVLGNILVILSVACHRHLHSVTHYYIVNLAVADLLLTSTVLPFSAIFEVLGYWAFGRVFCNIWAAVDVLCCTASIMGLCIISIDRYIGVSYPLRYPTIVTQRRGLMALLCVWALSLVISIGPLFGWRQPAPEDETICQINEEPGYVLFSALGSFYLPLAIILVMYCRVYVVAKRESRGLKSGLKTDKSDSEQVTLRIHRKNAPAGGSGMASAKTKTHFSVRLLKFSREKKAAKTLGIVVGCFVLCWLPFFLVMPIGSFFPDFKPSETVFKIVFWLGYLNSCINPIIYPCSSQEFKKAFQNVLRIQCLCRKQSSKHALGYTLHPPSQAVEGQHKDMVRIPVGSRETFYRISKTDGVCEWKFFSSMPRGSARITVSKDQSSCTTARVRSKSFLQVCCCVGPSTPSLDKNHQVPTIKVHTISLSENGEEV
T14 sequence (P25101 21-427): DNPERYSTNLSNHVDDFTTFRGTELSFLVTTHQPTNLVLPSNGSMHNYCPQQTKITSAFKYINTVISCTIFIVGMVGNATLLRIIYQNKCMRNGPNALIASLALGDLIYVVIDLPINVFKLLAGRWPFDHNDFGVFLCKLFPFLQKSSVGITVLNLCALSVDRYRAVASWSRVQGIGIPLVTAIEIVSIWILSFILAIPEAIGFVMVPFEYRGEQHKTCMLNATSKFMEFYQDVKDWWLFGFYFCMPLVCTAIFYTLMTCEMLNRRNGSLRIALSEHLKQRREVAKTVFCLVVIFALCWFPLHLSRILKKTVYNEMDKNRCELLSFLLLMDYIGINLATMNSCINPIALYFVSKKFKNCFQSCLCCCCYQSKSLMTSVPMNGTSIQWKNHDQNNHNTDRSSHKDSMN

**Q.** Which results are given for `O=c1ccc(-c2cnc(OCC(F)(F)F)nc2)nn1Cc1cncc(F)c1` [EDG-5506]?
**A.** Maximum Inhibition (%) ([1]; neonatal rat (P1) myofibrils): 96%; IC50 ([1]; neonatal rat (P1), 100% neonatal/embryonic MHC): 0.2 µM; ex vivo force inhibition [2]: completely inhibiting force; binding, % of control [3]: 72 % of control; binding, % of control [4]: 100 % of control; binding, % of control [5]: 98 % of control; binding, % of control [6]: 99 % of control; binding, % of control [7]: 95 % of control; binding, % of control [8]: 100 % of control; binding, % of control [9]: 90 % of control; Emax [10, 20]: 0%; Emax [10, 21]: 0%; Emax [11, 20]: 2.19%; Emax [11, 21]: 18.5%; Emax [12, 20]: 0%; Emax [12, 21]: 0%; Emax [13, 20]: 1.03%; Emax [13, 21]: 5.54%; Emax [14, 20]: 0.16%; Emax [14, 21]: 0%; Emax [15, 20]: 2.48%; Emax [15, 21]: 2.14%; Emax [16, 20]: 0%; Emax [16, 21]: 0%; Emax [17, 20]: 0%; Emax [17, 21]: 25.2%; Emax [18, 20]: 3.31%; Emax [18, 21]: 0.4%; Emax [19, 20]: 5.88%; Emax [19, 21]: 2.49%
